Target: Non-receptor tyrosine-protein kinase TYK2 (Homo sapiens, UniProt P29597)
Assay: Reactions were incubated at 22° C. in 384-well polypropylene microtiter plates for 30 minutes and then stopped by addition of 25 μL of an EDTA containing solution (100 mM Hepes pH 7.2, 0.015% Brij-35, 150 mM EDTA), resulting in a final EDTA concentration of 50 mM. Ki values were then determined using the Morrison tight binding model. Morrison, J. F., Biochim. Biophys. Acta. 185:269-296 (1969); William, J. W. and Morrison, J. F., Meth. Enzymol., 63:437-467 (1979).

Chain of Non-receptor tyrosine-protein kinase TYK2 (P29597 whole entry): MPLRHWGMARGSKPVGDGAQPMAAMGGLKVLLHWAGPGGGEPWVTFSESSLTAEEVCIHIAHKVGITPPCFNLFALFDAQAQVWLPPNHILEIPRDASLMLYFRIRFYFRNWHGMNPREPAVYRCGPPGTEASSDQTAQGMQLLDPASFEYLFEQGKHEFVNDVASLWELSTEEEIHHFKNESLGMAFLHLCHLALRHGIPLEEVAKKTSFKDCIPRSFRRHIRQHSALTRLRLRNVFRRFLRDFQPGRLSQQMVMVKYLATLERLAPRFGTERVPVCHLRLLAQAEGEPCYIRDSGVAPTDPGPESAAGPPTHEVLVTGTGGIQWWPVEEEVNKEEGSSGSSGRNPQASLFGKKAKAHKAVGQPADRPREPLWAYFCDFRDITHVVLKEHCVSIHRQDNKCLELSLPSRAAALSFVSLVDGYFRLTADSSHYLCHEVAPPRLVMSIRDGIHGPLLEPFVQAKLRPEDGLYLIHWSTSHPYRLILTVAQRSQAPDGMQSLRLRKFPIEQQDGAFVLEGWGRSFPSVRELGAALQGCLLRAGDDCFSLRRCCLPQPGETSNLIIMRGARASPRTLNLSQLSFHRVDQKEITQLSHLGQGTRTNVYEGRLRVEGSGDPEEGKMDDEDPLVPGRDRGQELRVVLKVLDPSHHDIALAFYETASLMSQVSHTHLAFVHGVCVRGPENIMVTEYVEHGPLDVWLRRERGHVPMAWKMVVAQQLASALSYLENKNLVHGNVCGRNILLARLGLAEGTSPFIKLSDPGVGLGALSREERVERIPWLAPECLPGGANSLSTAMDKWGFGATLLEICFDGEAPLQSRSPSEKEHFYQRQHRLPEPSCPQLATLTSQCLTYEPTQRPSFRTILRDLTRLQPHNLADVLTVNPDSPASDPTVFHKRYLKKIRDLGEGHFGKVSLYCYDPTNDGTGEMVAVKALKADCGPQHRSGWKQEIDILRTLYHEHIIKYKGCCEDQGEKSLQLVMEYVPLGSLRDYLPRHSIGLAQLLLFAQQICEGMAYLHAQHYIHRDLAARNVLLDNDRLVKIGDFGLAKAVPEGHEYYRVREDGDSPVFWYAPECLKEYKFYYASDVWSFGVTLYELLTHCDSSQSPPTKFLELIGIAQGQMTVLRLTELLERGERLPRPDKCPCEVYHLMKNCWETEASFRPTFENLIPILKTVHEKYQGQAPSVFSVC

SMILES	Ki
COC(=O)Nc1nccc2nc(-c3c(Cl)cccc3Cl)sc12	1.4 nM
OC1CN(c2cc(Nc3ncnc4nc(-c5c(Cl)cccc5Cl)sc34)ncn2)C1	87 nM

Reference: ChEMBL document CHEMBL3638741, “Azabenzothiazole compounds, compositions and methods of use” (2014)
